Values quoted from earlier work in PMC9268102, “Design, Synthesis and Biological Evaluation of 1,3,5-Triazine Derivatives Targeting hA1 and hA3 Adenosine Receptor” (Molecules, 2022).

Tests used:
[1] = molecular target: T1, hA3 AR (Homo sapiens, UniProt P0DMS8); design: expressed in transfected cells; host or cells: Hela-A3 cell line; method as in PMID 31280999, PMID 31780082, PMID 27531666; settings: read-out: Ki at hA3AR; cited from earlier work
T1 sequence (P0DMS8 1-318): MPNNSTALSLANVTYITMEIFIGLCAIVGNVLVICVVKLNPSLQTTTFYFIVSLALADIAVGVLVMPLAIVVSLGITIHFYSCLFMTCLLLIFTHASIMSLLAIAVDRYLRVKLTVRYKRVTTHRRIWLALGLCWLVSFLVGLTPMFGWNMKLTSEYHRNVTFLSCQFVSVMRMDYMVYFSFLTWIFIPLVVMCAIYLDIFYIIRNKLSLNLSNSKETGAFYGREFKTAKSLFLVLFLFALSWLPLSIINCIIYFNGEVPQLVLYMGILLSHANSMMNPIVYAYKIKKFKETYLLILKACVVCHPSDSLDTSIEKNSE

[2] = molecular target: T2, hA1 AR (Homo sapiens, UniProt P30542); settings: read-out: Ki at hA1AR; cited from earlier work
T2 construct: host or cells: CHO-A1 (CHO cells expressing hA1 AR)
T2 sequence (P30542 1-326): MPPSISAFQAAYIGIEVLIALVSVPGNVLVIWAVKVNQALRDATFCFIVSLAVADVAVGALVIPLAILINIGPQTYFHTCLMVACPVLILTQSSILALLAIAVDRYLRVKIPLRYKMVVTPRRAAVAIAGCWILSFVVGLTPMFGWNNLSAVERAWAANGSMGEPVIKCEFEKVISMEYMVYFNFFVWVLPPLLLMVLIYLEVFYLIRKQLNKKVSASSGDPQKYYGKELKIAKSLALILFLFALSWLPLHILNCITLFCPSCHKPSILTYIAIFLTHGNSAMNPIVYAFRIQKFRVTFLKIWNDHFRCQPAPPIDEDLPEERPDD

[3] = molecular target: T3, hA2A AR (Homo sapiens, UniProt P29274); settings: cited from earlier work; for Ki: read-out: Ki at hA2AAR
T3 construct: expressed in transfected cells; host or cells: Hela-A2A cell line
T3 sequence (P29274 whole entry): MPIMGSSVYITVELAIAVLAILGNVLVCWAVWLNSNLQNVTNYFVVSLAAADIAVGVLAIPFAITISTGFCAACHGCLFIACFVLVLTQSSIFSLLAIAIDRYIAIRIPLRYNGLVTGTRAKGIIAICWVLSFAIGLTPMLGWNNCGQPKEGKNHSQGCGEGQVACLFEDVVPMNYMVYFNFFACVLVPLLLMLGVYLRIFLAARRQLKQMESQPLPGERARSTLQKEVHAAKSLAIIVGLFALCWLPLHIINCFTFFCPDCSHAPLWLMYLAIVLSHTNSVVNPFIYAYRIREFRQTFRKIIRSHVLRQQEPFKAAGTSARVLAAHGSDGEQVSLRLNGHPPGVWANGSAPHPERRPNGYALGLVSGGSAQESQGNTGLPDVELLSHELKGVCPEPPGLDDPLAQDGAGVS

| Structure (SMILES) | Ki [1] [nM] | Ki [2] [nM] | Selectivity hA1/hA2AAR [3] | Ki [3] [nM] |
| --- | --- | --- | --- | --- |
| CN1CCN(c2nc(-c3cccc(O)c3)nc3[nH]cnc23)CC1 [Compound 1] | 6.3 | 6.8 |  |  |
| Nc1nc(NCCc2ccc(O)cc2)nc(Nc2nnc(-c3ccc(Cl)cc3)s2)n1 [Compound 5] |  | 520 | 11.66 | 44.6 |
| COc1cc(Cl)ccc1Nc1nc(N)nc(-c2oc3ccccc3c2C)n1 [Compound 4] |  | 1440 | 2.94 | 490 |
